Test results from ChEMBL document CHEMBL1926646 (Bioorg Med Chem, 2011).
Activity calls are given as the source filed them. The calls are words filed in the database; no cut-off is given here.

Key:
Dipeptidyl peptidase 8 = Dipeptidyl peptidase 8 (Homo sapiens, UniProt Q6V1X1); test: Inhibition of human recombinant DPP-8 expressed in Sf9 cells using H-Gly-Pro-AMC as substrate preincubated for 30 mins before substrate addition measured after 20 mins by fluorescence assay
Rattus norvegicus [1] = test: Antidiabetic activity in Wistar/ST rat plasma assessed as reduction in glucose AUC (0 to 60 mins) at 1 mg/kg, po pretreated 30 mins before glucose challenge measured for 2 hrs by oral glucose tolerance test; assay type: functional, organism-based; design: dose 1 mg/kg
Rattus norvegicus [2] = test: Inhibition of plasma DPP-4 activity in orally dosed Wistar/ST rat pretreated 30 mins before glucose challenge measured for 2 hrs during oral glucose tolerance test; assay type: functional, organism-based
Rattus norvegicus [3] = test: Increase in insulin level in Wistar/ST rat at 0.1 to 1 mg/kg, po pretreated 30 mins before glucose challenge measured after 10 mins; assay type: functional, organism-based
Cytochrome P450 2C9 [4] = target: T1, Cytochrome P450 2C9 (Homo sapiens, UniProt P11712); test: Inhibition of CYP2C9; assay type: ADME
T1 sequence (P11712 whole entry): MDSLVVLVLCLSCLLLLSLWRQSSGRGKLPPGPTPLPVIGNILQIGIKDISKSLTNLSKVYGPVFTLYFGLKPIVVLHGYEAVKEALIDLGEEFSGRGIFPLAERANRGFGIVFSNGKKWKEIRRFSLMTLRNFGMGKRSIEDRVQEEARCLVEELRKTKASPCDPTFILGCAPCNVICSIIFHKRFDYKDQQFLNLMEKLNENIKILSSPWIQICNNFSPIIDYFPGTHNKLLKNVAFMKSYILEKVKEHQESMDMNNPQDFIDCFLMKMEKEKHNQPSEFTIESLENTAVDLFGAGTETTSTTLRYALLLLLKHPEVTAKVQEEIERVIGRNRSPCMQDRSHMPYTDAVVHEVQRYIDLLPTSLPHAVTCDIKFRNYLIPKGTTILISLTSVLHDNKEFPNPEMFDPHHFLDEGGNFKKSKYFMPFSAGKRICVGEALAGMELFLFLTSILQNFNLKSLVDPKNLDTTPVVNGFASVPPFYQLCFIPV

[5] = Oral bioavailability in Beagle dog at 0.5 mg/kg; assay type: ADME, organism-based, Canis lupus familiaris; details: in vivo
Rattus norvegicus [6] = test: Volume of distribution at steady state in Sprague-Dawley rat at 1 mg/kg, iv; assay type: ADME, organism-based; design: dose 1 mg/kg, route intravenous; details: in vivo
[7] = Drug level in Sprague-Dawley rat plasma at 3 mg/kg at Tmax; assay type: ADME, organism-based; design: dose 3 mg/kg; details: read-out: Drug uptake
[8] = Plasma protein binding in rat at 20 ng/ml after 0.5 hrs by LC-MS/MS analysis; assay type: ADME, cell-free; details: read-out: PPB (converted)
Dipeptidyl peptidase 9 = Dipeptidyl peptidase 9 (Homo sapiens, UniProt Q86TI2); test: Inhibition of human recombinant DPP-9 expressed in Sf9 cells using H-Gly-Pro-AMC as substrate preincubated for 30 mins before substrate addition measured after 20 mins by fluorescence assay
Dipeptidyl peptidase 9, sequence (Q86TI2 whole entry): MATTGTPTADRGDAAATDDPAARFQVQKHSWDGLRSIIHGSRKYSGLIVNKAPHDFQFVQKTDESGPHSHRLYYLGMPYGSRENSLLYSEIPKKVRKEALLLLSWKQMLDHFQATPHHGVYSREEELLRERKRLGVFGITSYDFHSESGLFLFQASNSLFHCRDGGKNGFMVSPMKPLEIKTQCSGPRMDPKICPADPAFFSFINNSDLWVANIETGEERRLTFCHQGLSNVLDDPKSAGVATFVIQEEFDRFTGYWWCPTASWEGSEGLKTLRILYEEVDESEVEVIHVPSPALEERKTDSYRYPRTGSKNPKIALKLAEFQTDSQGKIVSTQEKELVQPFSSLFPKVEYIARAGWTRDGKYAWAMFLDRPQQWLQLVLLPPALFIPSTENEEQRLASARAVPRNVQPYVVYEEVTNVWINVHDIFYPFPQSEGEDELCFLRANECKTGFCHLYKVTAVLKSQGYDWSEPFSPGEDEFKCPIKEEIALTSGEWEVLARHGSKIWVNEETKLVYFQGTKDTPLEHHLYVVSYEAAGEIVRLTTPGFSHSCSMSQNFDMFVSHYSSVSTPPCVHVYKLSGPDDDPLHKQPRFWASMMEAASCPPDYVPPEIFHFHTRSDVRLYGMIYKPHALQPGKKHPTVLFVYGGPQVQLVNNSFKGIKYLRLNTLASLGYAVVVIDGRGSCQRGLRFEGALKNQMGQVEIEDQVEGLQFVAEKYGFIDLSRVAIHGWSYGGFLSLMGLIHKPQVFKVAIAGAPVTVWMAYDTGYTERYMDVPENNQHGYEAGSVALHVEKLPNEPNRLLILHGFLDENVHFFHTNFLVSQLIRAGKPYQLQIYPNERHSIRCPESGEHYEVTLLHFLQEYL

Cytochrome P450 1A2 [9] = target: T2, Cytochrome P450 1A2 (Homo sapiens, UniProt P05177); test: Induction of CYP1A2 at 50 uM; assay type: ADME
T2 sequence (P05177 whole entry): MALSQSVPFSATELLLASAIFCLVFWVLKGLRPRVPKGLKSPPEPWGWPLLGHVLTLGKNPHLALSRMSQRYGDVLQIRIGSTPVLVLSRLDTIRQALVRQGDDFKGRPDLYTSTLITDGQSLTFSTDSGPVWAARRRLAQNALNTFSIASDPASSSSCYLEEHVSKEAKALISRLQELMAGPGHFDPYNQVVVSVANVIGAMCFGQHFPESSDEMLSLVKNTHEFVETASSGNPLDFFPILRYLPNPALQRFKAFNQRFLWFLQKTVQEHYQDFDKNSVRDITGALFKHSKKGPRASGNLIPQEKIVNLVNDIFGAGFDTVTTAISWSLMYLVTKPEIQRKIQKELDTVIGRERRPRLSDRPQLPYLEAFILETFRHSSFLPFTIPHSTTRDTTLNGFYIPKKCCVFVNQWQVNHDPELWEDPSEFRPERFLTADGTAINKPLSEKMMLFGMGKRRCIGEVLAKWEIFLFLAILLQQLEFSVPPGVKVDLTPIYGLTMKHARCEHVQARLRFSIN

[10] = Intrinsic clearance in rat liver microsomes; assay type: ADME, Microsome
[11] = Total clearance in Beagle dog at 0.2 mg/kg, iv; assay type: ADME, organism-based, Canis lupus familiaris; design: dose 0.2 mg/kg, route intravenous; details: in vivo
[12] = Tmax in Sprague-Dawley rat at 3 mg/kg, po; assay type: ADME, organism-based; design: dose 3 mg/kg, route oral; details: in vivo
Cytochrome P450 2C9 [13] = target: T1, Cytochrome P450 2C9; test: Induction of CYP2C9 at 50 uM; assay type: ADME
[14] = Plasma protein binding in human at 2000 ng/ml after 0.5 hrs by LC-MS/MS analysis; assay type: ADME, cell-free; details: read-out: PPB (converted)
[15] = Tmax in Beagle dog at 0.5 mg/kg, po; assay type: ADME, organism-based, Canis lupus familiaris; design: dose 0.5 mg/kg, route oral; details: in vivo
[16] = Drug excretion in bile-duct cannulated Sprague-Dawley rat urine assessed as unchanged drug at 5 mg/kg, iv measured over 24 hrs; assay type: ADME, organism-based; design: dose 5 mg/kg, route intravenous; details: read-out: AE
[17] = Tmax in Sprague-Dawley rat at 10 mg/kg, po; assay type: ADME, organism-based; design: dose 10 mg/kg, route oral; details: in vivo
[18] = Intrinsic clearance in human liver microsomes; assay type: ADME, Microsome
[19] = Plasma protein binding in rat at 2000 ng/ml after 0.5 hrs by LC-MS/MS analysis; assay type: ADME, cell-free; details: read-out: PPB (converted)
Canis familiaris [20] = test: Volume of distribution at steady state in Beagle dog at 0.2 mg/kg, iv; assay type: ADME, organism-based, Canis lupus familiaris; design: dose 0.2 mg/kg, route intravenous; details: in vivo
[21] = Cmax in Beagle dog at 0.5 mg/kg, po; assay type: ADME, organism-based, Canis lupus familiaris; design: dose 0.5 mg/kg, route oral; details: in vivo
[22] = Drug excretion in dog urine assessed as unchanged drug at 1 mg/kg, iv measured over 24 hrs; assay type: ADME, organism-based, Canis lupus familiaris; design: dose 1 mg/kg, route intravenous; details: read-out: AE
[23] = Total clearance in Sprague-Dawley rat at 1 mg/kg, iv; assay type: ADME, organism-based; design: dose 1 mg/kg, route intravenous; details: in vivo
Cytochrome P450 2C8 = target: T3, Cytochrome P450 2C8 (Homo sapiens, UniProt P10632); test: Induction of CYP2C8 at 50 uM; assay type: ADME
T3 sequence (P10632 whole entry): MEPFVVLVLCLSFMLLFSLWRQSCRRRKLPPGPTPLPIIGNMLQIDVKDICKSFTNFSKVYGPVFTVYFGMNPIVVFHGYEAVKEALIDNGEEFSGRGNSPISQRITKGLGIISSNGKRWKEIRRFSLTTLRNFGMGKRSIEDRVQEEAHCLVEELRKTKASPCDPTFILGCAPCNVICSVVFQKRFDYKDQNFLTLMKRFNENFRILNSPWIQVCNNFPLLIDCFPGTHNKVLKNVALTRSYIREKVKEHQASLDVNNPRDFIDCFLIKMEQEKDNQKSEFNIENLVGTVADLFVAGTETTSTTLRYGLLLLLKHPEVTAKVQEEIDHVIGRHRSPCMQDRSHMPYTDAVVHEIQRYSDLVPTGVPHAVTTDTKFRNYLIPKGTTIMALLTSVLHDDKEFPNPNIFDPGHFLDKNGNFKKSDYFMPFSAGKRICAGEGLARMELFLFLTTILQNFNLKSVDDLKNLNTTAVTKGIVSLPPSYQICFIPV

Canis familiaris [24] = test: AUC in Beagle dog at 0.5 mg/kg, po; assay type: ADME, organism-based, Canis lupus familiaris, Plasma; design: dose 0.5 mg/kg, route oral; details: in vivo
[25] = Terminal half life in Sprague-Dawley rat at 10 mg/kg, po; assay type: ADME, organism-based; design: dose 10 mg/kg, route oral; details: in vivo, read-out: beta t1/2 (converted)
[26] = Plasma protein binding in human at 20 ng/ml after 0.5 hrs by LC-MS/MS analysis; assay type: ADME, cell-free; details: read-out: PPB (converted)
Cytochrome P450 1A2 [27] = target: T2, Cytochrome P450 1A2; test: Inhibition of CYP1A2; assay type: ADME
[28] = Intrinsic clearance in monkey liver microsomes; assay type: ADME, Macaca mulatta, Microsome; details: rhesus monkey
[29] = Cmax in Sprague-Dawley rat at 3 mg/kg, po; assay type: ADME, organism-based; design: dose 3 mg/kg, route oral; details: in vivo
Rattus norvegicus [30] = test: Inhibition of plasma DPP-4 activity in Wistar/ST rat at 0.1 mg/kg, po pretreated 30 mins before glucose challenge measured for 2 hrs during oral glucose tolerance test; assay type: functional
[31] = Drug excretion in dog feces assessed as unchanged drug at 1 mg/kg, iv measured over 24 hrs; assay type: ADME, organism-based, Canis lupus familiaris; design: dose 1 mg/kg, route intravenous; details: faeces, read-out: AE
[32] = Drug excretion in bile-duct cannulated Sprague-Dawley rat bile assessed as unchanged drug at 5 mg/kg, iv measured over 24 hrs; assay type: ADME, organism-based; design: dose 5 mg/kg, route intravenous; details: read-out: AE
Salmonella typhimurium = test: Mutagenic activity in Salmonella Typhimurium by Ames test; assay type: toxicity, organism-based; details: salmonella enterica subsp. enterica serovar typhimurium
Cytochrome P450 2D6 = Cytochrome P450 2D6 (Homo sapiens, UniProt P10635); test: Inhibition of CYP2D6; assay type: ADME
Cytochrome P450 2D6, sequence (P10635 whole entry): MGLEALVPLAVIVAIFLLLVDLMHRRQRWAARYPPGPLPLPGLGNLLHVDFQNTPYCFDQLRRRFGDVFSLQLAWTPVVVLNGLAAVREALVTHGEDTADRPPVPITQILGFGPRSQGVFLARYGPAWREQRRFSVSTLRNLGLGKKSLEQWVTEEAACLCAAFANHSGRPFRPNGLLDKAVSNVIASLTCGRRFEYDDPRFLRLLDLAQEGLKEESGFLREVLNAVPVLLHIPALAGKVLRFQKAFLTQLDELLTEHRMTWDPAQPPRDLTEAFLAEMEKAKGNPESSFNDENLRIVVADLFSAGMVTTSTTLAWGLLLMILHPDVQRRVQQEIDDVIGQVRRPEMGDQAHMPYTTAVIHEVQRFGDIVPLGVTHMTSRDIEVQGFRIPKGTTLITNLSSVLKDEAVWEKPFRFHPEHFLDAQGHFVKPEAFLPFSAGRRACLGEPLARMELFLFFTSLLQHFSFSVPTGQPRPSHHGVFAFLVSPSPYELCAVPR

[33] = Drug excretion in bile-duct cannulated Sprague-Dawley rat urine assessed as unchanged drug at 1 mg/kg, iv measured over 24 hrs; assay type: ADME, organism-based; design: dose 1 mg/kg, route intravenous; details: read-out: AE
[34] = Plasma protein binding in dog at 2000 ng/ml after 0.5 hrs by LC-MS/MS analysis; assay type: ADME, cell-free, Canis lupus familiaris; details: read-out: PPB (converted)
Cytochrome P450 3A4 [35] = target: T4, Cytochrome P450 3A4 (Homo sapiens, UniProt P08684); test: Induction of CYP3A4 at 50 uM; assay type: ADME
T4 sequence (P08684 whole entry): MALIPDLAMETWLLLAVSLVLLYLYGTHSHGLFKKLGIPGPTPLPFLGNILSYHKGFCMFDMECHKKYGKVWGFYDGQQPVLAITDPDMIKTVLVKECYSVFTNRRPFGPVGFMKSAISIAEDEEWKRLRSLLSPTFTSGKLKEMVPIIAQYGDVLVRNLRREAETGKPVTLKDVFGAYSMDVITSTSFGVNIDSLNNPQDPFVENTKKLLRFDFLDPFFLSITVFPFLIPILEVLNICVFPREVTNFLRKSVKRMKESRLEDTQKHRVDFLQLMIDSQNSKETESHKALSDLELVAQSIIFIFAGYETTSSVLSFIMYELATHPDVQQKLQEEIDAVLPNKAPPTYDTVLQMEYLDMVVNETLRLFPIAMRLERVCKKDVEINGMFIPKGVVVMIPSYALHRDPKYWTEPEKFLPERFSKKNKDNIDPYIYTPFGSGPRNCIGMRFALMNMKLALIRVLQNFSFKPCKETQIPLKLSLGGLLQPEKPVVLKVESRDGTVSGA

[36] = Plasma protein binding in dog at 20 ng/ml after 0.5 hrs by LC-MS/MS analysis; assay type: ADME, cell-free, Canis lupus familiaris; details: read-out: PPB (converted)
Rattus norvegicus [37] = test: Inhibition of plasma DPP-4 activity in Wistar/ST rat at 3 mg/kg, po pretreated 30 mins before glucose challenge measured for 2 hrs during oral glucose tolerance test; assay type: functional
[38] = Terminal half life in Beagle dog at 0.5 mg/kg, po; assay type: ADME, organism-based, Canis lupus familiaris; design: dose 0.5 mg/kg, route oral; details: in vivo, read-out: beta t1/2 (converted)
Cytochrome P450 2C19 = Cytochrome P450 2C19 (Homo sapiens, UniProt P33261); test: Inhibition of CYP2C19; assay type: ADME
Cytochrome P450 2C19, sequence (P33261 whole entry): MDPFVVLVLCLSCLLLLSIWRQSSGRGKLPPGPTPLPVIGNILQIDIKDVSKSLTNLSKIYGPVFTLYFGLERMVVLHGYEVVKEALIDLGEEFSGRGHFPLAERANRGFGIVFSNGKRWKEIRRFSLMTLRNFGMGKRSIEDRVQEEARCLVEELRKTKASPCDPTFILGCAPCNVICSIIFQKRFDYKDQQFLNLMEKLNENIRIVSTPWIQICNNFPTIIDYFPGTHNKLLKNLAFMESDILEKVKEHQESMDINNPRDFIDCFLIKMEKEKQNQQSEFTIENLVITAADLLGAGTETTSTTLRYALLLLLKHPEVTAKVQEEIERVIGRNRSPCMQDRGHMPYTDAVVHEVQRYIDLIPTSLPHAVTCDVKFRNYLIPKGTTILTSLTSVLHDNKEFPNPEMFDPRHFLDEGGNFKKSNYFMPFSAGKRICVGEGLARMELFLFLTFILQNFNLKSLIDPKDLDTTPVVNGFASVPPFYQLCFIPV

[39] = target: Voltage-gated inwardly rectifying potassium channel KCNH2 (Homo sapiens, UniProt Q12809); test: Inhibition of human ERG expressed in HEK293 cells by patch clamp assay; assay type: cell-based
Voltage-gated inwardly rectifying potassium channel KCNH2, sequence (Q12809 whole entry): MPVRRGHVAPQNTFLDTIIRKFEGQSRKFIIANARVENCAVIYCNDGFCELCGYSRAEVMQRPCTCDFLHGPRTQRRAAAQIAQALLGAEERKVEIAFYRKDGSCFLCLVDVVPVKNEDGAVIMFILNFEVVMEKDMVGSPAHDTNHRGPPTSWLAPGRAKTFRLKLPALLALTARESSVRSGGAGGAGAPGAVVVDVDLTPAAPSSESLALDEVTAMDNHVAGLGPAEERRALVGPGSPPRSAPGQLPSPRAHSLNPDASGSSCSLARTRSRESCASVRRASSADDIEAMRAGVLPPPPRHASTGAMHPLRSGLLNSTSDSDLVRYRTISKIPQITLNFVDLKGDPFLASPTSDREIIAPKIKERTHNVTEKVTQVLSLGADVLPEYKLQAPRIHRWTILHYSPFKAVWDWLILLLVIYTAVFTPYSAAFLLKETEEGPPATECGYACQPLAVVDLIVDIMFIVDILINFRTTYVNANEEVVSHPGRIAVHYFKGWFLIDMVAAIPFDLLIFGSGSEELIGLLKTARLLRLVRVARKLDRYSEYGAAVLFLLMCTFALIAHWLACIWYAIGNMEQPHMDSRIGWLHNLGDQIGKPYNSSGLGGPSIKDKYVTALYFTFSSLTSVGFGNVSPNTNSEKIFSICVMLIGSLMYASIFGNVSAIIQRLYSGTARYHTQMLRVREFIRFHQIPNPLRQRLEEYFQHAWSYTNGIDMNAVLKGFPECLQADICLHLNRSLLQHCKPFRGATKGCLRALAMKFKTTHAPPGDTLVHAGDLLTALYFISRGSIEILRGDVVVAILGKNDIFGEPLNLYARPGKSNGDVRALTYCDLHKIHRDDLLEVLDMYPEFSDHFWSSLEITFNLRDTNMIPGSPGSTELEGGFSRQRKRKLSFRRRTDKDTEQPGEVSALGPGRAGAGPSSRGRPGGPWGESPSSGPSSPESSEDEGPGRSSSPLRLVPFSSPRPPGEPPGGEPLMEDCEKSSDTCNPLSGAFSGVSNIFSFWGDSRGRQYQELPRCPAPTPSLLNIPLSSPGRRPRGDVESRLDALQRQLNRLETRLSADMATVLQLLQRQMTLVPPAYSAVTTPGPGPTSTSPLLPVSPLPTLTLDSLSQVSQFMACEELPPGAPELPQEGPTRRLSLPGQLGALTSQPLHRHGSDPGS

[40] = Intrinsic clearance in dog liver microsomes; assay type: ADME, Canis lupus familiaris, Microsome
[41] = Oral bioavailability in Sprague-Dawley rat at 10 mg/kg; assay type: ADME, organism-based; details: in vivo
Rattus norvegicus [42] = test: AUC in Sprague-Dawley rat at 10 mg/kg, po; assay type: ADME, organism-based, Plasma; design: dose 10 mg/kg, route oral; details: in vivo
[43] = Cmax in Sprague-Dawley rat at 10 mg/kg, po; assay type: ADME, organism-based; design: dose 10 mg/kg, route oral; details: in vivo
Cytochrome P450 3A4 [44] = target: T4, Cytochrome P450 3A4; test: Inhibition of CYP3A4; assay type: ADME
[45] = Drug excretion in bile-duct cannulated Sprague-Dawley rat bile assessed as unchanged drug at 1 mg/kg, iv measured over 24 hrs; assay type: ADME, organism-based; design: dose 1 mg/kg, route intravenous; details: read-out: AE
Dipeptidyl peptidase 2 = Dipeptidyl peptidase 2 (Homo sapiens, UniProt Q9UHL4); test: Inhibition of DPP-2 expressed in human Caco-2 cells using H-Lys-Ala-AMC as substrate preincubated for 30 mins before substrate addition measured after 20 mins by fluorescence assay; assay type: cell-based

Dipeptidyl peptidase 8, sequence (Q6V1X1 whole entry): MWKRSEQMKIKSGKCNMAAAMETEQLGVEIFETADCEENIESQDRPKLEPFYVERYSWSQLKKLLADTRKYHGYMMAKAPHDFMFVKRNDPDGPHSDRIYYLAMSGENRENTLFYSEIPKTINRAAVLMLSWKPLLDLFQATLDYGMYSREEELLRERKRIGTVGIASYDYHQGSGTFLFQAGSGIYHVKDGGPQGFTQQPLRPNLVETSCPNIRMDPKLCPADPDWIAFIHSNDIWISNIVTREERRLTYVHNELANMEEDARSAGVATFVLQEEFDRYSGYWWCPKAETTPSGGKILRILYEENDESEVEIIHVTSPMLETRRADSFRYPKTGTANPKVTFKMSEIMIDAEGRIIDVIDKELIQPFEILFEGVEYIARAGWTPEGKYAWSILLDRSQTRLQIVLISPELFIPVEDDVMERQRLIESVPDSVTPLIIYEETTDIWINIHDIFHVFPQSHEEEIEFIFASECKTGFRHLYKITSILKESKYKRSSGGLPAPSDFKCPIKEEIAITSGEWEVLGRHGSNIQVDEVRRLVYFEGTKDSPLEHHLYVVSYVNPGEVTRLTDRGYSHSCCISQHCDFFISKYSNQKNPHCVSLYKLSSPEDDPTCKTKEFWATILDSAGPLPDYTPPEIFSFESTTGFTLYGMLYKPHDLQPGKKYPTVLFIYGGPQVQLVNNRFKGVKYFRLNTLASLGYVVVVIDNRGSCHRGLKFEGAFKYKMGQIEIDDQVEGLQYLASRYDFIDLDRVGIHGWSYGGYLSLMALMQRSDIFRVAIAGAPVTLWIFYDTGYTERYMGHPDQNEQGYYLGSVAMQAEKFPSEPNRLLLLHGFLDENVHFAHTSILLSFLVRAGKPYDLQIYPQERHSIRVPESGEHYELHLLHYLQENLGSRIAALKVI

## Cc1nc2cc(C(C)(C)C)nn2c(C)c1C(=O)NCC(C)(C)NCC(=O)N1CCC[C@H]1C#N
Dipeptidyl peptidase 8
  IC50: > 100 µM

## Cc1cc2ncc(C(=O)NCC(C)(C)NCC(=O)N3CCC[C@H]3C#N)cn2n1
Rattus norvegicus [1]
  Activity: Active
Rattus norvegicus [2]
  inhibition: Dose-dependent effect
Rattus norvegicus [3]
  Activity: Active

## Cc1cc2ncc(C(=O)NCC(C)(C)NCC(=O)N3CCC[C@H]3C#N)cn2n1.Cl [ANAGLIPTIN HYDROCHLORIDE]
Cytochrome P450 2C9 [4]
  IC50: > 10 µM
[5]
  bioavailability: 100%
Rattus norvegicus [6]
  Vdss: 0.68 L/kg
[7]
  Cmax: 14 nM
[8]
  fraction unbound at 0.5 h, 20 ng/ml: 0.227
Dipeptidyl peptidase 9
  IC50: 60 µM
Cytochrome P450 1A2 [9]
  Activity: Not Active
[10]
  CLint scaled: 23.3 mL/min/kg
[11]
  clearance: 10.8 mL/min/kg
[12]
  Tmax: 2.3 h
Cytochrome P450 2C9 [13]
  Activity: Not Active
[14]
  fraction unbound at 0.5 h, 2000 ng/ml: 0.736
[15]
  Tmax: 1.5 h
[16]
  dose excreted at 24 h: 41%
[17]
  Tmax: 0.8 h
[18]
  CLint scaled: 5 mL/min/kg
[19]
  fraction unbound at 0.5 h, 2000 ng/ml: 0.229
Canis familiaris [20]
  Vdss: 0.83 L/kg
[21]
  Cmax: 261 ng/mL
[22]
  dose excreted at 24 h: 32%
[23]
  clearance: 33.3 mL/min/kg
Cytochrome P450 2C8
  Activity: Not Active
Canis familiaris [24]
  AUC: 824 ng·h/mL
[25]
  half-life: 1.9 h
Dipeptidyl peptidase 8
  IC50: 68 µM
[26]
  fraction unbound at 0.5 h, 20 ng/ml: 0.708
Cytochrome P450 1A2 [27]
  IC50: > 10 µM
[28]
  CLint scaled: 8.33 mL/min/kg
[29]
  Cmax: 62 ng/mL
Rattus norvegicus [30]
  inhibition in vivo at 0.1 mg/kg: 30%
[31]
  dose excreted at 24 h: 24%
[32]
  dose excreted at 24 h: 14%
Salmonella typhimurium
  Activity: Non-toxic
Cytochrome P450 2D6
  IC50: > 10 µM
[33]
  dose excreted at 24 h: 30%
[34]
  fraction unbound at 0.5 h, 2000 ng/ml: 0.482
Cytochrome P450 3A4 [35]
  Activity: Not Active
[36]
  fraction unbound at 0.5 h, 20 ng/ml: 0.352
Rattus norvegicus [37]
  inhibition in vivo at 3 mg/kg: 95%
[38]
  half-life: 1 h
Cytochrome P450 2C19
  IC50: > 10 µM
[39]
  IC50: > 500 µM
[40]
  CLint scaled: 1.67 mL/min/kg
[41]
  bioavailability: 23%
Rattus norvegicus [42]
  AUC: 1160 ng·h/mL
[43]
  Cmax: 309 ng/mL
Cytochrome P450 3A4 [44]
  IC50: > 10 µM
[45]
  dose excreted at 24 h: 13%

## Cc1cc2ncc(C(=O)NCC(C)(C)NCC(=O)N3CCC[C@H]3C#N)cn2n1 [ANAGLIPTIN]
Dipeptidyl peptidase 2
  IC50: 177 µM
